ChEMBL document CHEMBL4190178 (Medchemcomm, 2016)
Calls of active or inactive are those of the source. No cut-off for these calls is given here.

Legend:
[1] = system: LNCaP; experiment: Cytotoxicity against human LNCAP cells assessed as reduction in cell viability after 24 hrs by MTT assay; type: functional, cell-based
[2] = system: DU-145; experiment: Antiproliferative activity against human DU145 cells assessed as decrease in cell viability after 24 hrs by MTT assay; type: functional, cell-based; details: DU-145, 24 h
[3] = system: LNCaP; experiment: Antiproliferative activity against human LNCAP cells assessed as decrease in cell viability after 24 hrs by MTT assay; type: functional, cell-based
[4] = system: PC-3; experiment: Antiproliferative activity against human PC3 cells assessed as decrease in cell viability after 24 hrs by MTT assay; type: functional, cell-based; details: PC-3, 24 h
[5] = target: T1, Androgen receptor (Homo sapiens) (UniProt P10275); experiment: Antagonist activity at androgen receptor in human LNCAP cells assessed as decrease in testosterone-induced PSA expression levels at 10 uM after 24 hrs by Western blot analysis; type: cell-based
T1 sequence (whole entry): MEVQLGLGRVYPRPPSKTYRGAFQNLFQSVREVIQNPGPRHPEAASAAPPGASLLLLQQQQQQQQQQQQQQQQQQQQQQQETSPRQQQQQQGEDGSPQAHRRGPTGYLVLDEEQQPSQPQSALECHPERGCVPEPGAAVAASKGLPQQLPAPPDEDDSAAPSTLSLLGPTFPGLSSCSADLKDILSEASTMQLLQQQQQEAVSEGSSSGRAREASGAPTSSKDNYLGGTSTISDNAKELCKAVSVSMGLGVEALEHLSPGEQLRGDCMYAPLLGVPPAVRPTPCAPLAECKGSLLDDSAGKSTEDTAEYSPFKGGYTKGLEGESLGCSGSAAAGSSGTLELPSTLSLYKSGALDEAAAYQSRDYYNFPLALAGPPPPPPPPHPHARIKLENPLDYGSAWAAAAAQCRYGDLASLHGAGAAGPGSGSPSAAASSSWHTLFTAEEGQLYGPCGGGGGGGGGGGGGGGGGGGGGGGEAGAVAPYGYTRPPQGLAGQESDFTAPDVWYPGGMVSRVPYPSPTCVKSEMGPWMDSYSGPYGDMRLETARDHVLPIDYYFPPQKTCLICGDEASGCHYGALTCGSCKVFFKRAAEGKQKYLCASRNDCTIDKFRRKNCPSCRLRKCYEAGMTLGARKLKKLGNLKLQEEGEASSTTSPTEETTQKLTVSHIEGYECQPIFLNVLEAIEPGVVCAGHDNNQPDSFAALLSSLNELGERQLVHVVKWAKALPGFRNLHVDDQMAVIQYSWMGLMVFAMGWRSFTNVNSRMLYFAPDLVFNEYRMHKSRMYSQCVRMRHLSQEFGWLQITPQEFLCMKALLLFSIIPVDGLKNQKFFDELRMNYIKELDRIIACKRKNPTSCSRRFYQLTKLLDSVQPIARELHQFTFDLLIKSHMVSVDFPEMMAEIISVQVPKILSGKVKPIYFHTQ

[6] = target: T2, Alpha-1A adrenergic receptor (Homo sapiens) (UniProt P35348); experiment: Antagonist activity at human alpha1A adrenergic receptor expressed in Chem1 cells assessed as decrease in epinephrine-induced calcium mobilization by measuring relative fluorescence unit at 10 uM by fluoforte dye based fluorescence assay relative to epinephrine; type: functional, cell-based
T2 sequence (whole entry): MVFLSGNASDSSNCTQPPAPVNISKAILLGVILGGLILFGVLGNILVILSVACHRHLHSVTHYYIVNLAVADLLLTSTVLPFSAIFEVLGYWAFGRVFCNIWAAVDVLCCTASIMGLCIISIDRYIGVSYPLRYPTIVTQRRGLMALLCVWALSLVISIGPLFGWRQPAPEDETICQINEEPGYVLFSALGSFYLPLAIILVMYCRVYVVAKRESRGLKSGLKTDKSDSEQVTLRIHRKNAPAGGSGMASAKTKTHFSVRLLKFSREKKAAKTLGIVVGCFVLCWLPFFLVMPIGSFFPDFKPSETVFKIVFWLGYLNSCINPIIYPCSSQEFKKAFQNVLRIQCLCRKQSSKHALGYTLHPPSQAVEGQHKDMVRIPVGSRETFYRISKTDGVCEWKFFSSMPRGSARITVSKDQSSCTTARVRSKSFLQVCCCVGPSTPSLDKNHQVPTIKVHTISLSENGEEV

[7] = system: Rattus norvegicus; experiment: (§1) Anti-androgenic activity in citral-induced benign prostatic hyperplasia Sprague-Dawley rat model assessed as reduction in tissue differentiation into acinar compartments at 10 mg/kg, po qd co-administered with citral for 21 days starting post 8 days of citral alone treatment by hematoxyline and eosin staining based light microscopic analysis; type: functional, organism-based
[8] = system: Rattus norvegicus; experiment: as §1, with “stroma” for “acinar compartments”; type: functional, organism-based
[9] = system: Rattus norvegicus; experiment: Toxicity in benign prostatic hyperplasia Sprague-Dawley rat model assessed as effect on epididymis weight at 10 mg/kg, po qd co-administered with citral for 21 days starting post 8 days of citral alone treatment; type: organism-based; details: in vivo
[10] = system: Rattus norvegicus; experiment: Toxicity in benign prostatic hyperplasia Sprague-Dawley rat model assessed as effect on testis weight at 10 mg/kg, po qd co-administered with citral for 21 days starting post 8 days of citral alone treatment; type: organism-based; details: in vivo
[11] = system: Rattus norvegicus; experiment: Anti-androgenic activity in benign prostatic hyperplasia Sprague-Dawley rat model assessed as reduction in citral-induced prostate weight at 10 mg/kg, po qd co-administered with citral for 21 days starting post 8 days of citral alone treatment; type: functional; set-up: scale not given: the % may be the effect or the level left
[12] = system: Rattus norvegicus; experiment: as §1, with “stromal component” for “tissue differentiation into acinar compartments”; type: functional, organism-based
[13] = system: Rattus norvegicus; experiment: Toxicity in benign prostatic hyperplasia Sprague-Dawley rat model assessed as effect on seminal vesicle weight at 10 mg/kg, po qd co-administered with citral for 21 days starting post 8 days of citral alone treatment; type: organism-based; details: in vivo
[14] = Cmax in Sprague-Dawley rat hypothalamus at 10 mg/kg, po administered as single dose by LC-MS/MS analysis; type: ADME, organism-based; set-up: dose 10 mg/kg, route oral
[15] = Apparent clearance in Sprague-Dawley rat serum at 10 mg/kg, po administered as single dose by LC-MS/MS analysis; type: ADME, organism-based
[16] = target: T1, Androgen receptor (Homo sapiens); experiment: Antagonist activity at human androgen receptor expressed in African green monkey COS7 cells at 7.5 uM after 24 hrs by ARE-dual luciferase reporter gene assay; type: cell-based
[17] = Ratio of AUClast in Sprague-Dawley rat prostate to serum at 10 mg/kg, po administered as single dose by LC-MS/MS analysis; type: ADME, organism-based; details: read-out: Ratio AUC
[18] = Apparent volume of distribution in Sprague-Dawley rat prostate at 10 mg/kg, po administered as single dose by LC-MS/MS analysis; type: ADME, organism-based, Prostate gland; details: in vivo
[19] = Cmax in Sprague-Dawley rat prostate at 10 mg/kg, po administered as single dose by LC-MS/MS analysis; type: ADME, organism-based, Prostate gland; set-up: dose 10 mg/kg, route oral
[20] = Tmax in Sprague-Dawley rat serum at 10 mg/kg, po administered as single dose by LC-MS/MS analysis; type: ADME, organism-based
[21] = Cmax in Sprague-Dawley rat serum at 10 mg/kg, po administered as single dose by LC-MS/MS analysis; type: ADME, organism-based; set-up: dose 10 mg/kg, route oral
[22] = Apparent clearance in Sprague-Dawley rat prostate at 10 mg/kg, po administered as single dose by LC-MS/MS analysis; type: ADME, organism-based, Prostate gland; details: in vivo
[23] = AUClast in Sprague-Dawley rat hypothalamus at 10 mg/kg, po administered as single dose by LC-MS/MS analysis; type: ADME, organism-based; details: in vivo
[24] = Apparent volume of distribution in Sprague-Dawley rat hypothalamus at 10 mg/kg, po administered as single dose by LC-MS/MS analysis; type: ADME, organism-based; details: in vivo
[25] = Tmax in Sprague-Dawley rat hypothalamus at 10 mg/kg, po administered as single dose by LC-MS/MS analysis; type: ADME, organism-based
[26] = Ratio of AUClast in Sprague-Dawley rat hypothalamus to serum at 10 mg/kg, po administered as single dose by LC-MS/MS analysis; type: ADME, organism-based; details: read-out: Ratio AUC
[27] = AUClast in Sprague-Dawley rat serum at 10 mg/kg, po administered as single dose by LC-MS/MS analysis; type: ADME, organism-based; set-up: dose 10 mg/kg, route oral, time 0 - last
[28] = Apparent volume of distribution in Sprague-Dawley rat serum at 10 mg/kg, po administered as single dose by LC-MS/MS analysis; type: ADME, organism-based
[29] = Tmax in Sprague-Dawley rat prostate at 10 mg/kg, po administered as single dose by LC-MS/MS analysis; type: ADME, organism-based, Prostate gland
[30] = Apparent clearance in Sprague-Dawley rat hypothalamus at 10 mg/kg, po administered as single dose by LC-MS/MS analysis; type: ADME, organism-based; details: in vivo
[31] = AUClast in Sprague-Dawley rat prostate at 10 mg/kg, po administered as single dose by LC-MS/MS analysis; type: ADME, organism-based, Prostate gland; details: in vivo

Work on `O=C(N1CCN(c2ccc([N+](=O)[O-])cc2)CC1)N1CCN(c2ccc([N+](=O)[O-])cc2C(F)(F)F)CC1` yielded an EC50 [1] of 76.1 µM.

In the case of `COc1ccccc1N1CCN(C(=O)CCl)CC1`, the EC50 [2] is reported as > 80 µM, the EC50 [1] is reported as 7.6 µM and the EC50 [3] is reported as 7.6 µM. The EC50 [4] was > 80 µM, the Activity [5] was “Active” and the fold change (FC) [6] was 1.6.

For `CC(C)C(=O)Nc1ccc([N+](=O)[O-])c(C(F)(F)F)c1` [FLUTAMIDE], the Activity [7] was “Active”, the Activity [8] was “Active” and the Activity [9] was “Non-Toxic”. For the same molecule, the EC50 [1] was 7 µM, the Activity [10] was “Non-Toxic” and the Activity [11] was 51.8%. The Activity [12] was “Active” and the Activity [13] was “Non-Toxic”.

With `O=C(CN1CCN(c2ccccn2)CC1)N1CCN(c2ccc([N+](=O)[O-])cc2)CC1` the EC50 [1] was 55.2 µM.

Work on `O=C(CCl)N1CCN(c2ccc(C(F)(F)F)cc2[N+](=O)[O-])CC1` yielded an EC50 [1] of 41.1 µM.

For `O=C(CCl)N1CCN(c2ccc([N+](=O)[O-])cc2C(F)(F)F)CC1`, the EC50 [1] was 53.3 µM.

With `O=C(CN1CCN(c2ccc([N+](=O)[O-])cc2C(F)(F)F)CC1)N1CCN(c2ccc([N+](=O)[O-])cc2C(F)(F)F)CC1` the EC50 [1] was 46.6 µM.

In the case of `O=C(CN1CCN(c2ncccn2)CC1)N1CCN(c2ncccn2)CC1`, the EC50 [1] is reported as 48.2 µM.

In the case of `O=C(CN1CCN(c2ccc([N+](=O)[O-])cc2)CC1)N1CCN(c2ccc([N+](=O)[O-])cc2)CC1`, the Cmax [14] is reported as 1200 ng/g, the CL/F [15] is reported as 6.67 mL/min/kg and the Activity [16] is reported as “Active”. For the same molecule, the Kp [17] was 1.5, the Vd/F [18] was 2311.9 g/kg and the EC50 [2] was > 80 µM. The Activity [7] was “Active”, the Cmax [19] was 2400 ng/g and the Tmax [20] was 10 h. The Activity [8] was “Active”, the Cmax [21] was 1100 ng/mL and the Activity [9] was “Non-Toxic”. For the same molecule, the EC50 [1] was 11.2 µM, the Activity [10] was “Non-Toxic” and the CL/F [22] was 268.2 g/h/kg. It also gave an AUClast [23] of 26.1 µg·h/g, an Activity [11] of 46.2% and a Vd/F [24] of 3313.7 g/kg. For the same molecule, the Activity [12] was “Active”, the Activity [13] was “Non-Toxic” and the Tmax [25] was 10 h. The Kp [26] was 1.1, the AUC(0-t) [27] was 24100 ng·h/mL and the Vd/F [28] was 4.2 L/kg. For the same molecule, the EC50 [3] was 11.2 µM, the Tmax [29] was 10 h and the EC50 [4] was > 80 µM. For the same molecule, the Activity [5] was “Active”, the fold change (FC) [6] was 1.6 and the CL/F [30] was 383.2 g/h/kg. For the same molecule, the AUClast [31] was 37.3 µg·h/g.

In the case of `O=C(CN1CCN(c2ccc(C(F)(F)F)cc2[N+](=O)[O-])CC1)N1CCN(c2ccc(C(F)(F)F)cc2[N+](=O)[O-])CC1`, the EC50 [1] is reported as 48.2 µM.

Work on `COc1ccccc1N1CCN(C(=O)CN2CCN(c3ncccn3)CC2)CC1` yielded an EC50 [1] of 48.2 µM.

`O=C(CN1CCN(c2ccc([N+](=O)[O-])cc2)CC1)N1CCN(c2ncccn2)CC1` showed an EC50 [1] of 67.9 µM.

`COc1ccccc1N1CCN(CC(=O)N2CCN(c3ncccn3)CC2)CC1` gave an EC50 [1] of 47.1 µM.
